Consider 14 molecules from US20260146035A1, “FUSED BICYCLIC COMPOUNDS AND THEIR USE AS MER AND AXL INHIBITORS” (DONG-A ST CO., LTD., priority 2022, published 2026).

For assay [1], the target named is T1, human TYRO3 (455-end) (Homo sapiens, UniProt Q06418).
T1 construct: TYRO3 (455-end); purchased SignalChem, Canada
T1 sequence (Q06418 455-890 limits assumed): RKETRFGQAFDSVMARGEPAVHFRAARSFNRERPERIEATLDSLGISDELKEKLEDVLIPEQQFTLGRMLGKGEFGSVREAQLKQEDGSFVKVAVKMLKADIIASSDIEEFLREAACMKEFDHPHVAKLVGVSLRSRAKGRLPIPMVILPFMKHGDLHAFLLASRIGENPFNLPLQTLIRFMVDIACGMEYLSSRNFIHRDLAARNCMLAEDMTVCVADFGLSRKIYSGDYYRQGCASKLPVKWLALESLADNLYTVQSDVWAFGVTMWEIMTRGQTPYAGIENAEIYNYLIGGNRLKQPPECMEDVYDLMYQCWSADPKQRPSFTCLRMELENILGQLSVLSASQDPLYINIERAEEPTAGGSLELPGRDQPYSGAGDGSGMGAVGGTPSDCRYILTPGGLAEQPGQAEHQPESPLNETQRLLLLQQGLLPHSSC
The assay is described as follows: HTRF kinase activity biochemical assay, TYRO3. The following applies: 10 μM ATP, 30 minutes pre-incubation; read-out: HTRF TYRO IC50. The method, then:
(§1) For the SAR (structure-activity relationship) and compound screening, HTRF (Homogeneous Time Resolved Fluorescence) kinase activity assay was employed for all MER, AXL and TYRO3 kinases using Cisbio HTRF® KinEASE™-TK kit (Cisbio, USA). The kit included biotin-labeled TK substrate, streptavidin-XL665, Eu3+-cryptate-labeled TK antibody and HTRF® Detection buffer. There are two main steps in the kinase assay: kinase reaction and detection of phosphorylated substrate. The reaction was carried out in white low volume 384-well plate (Corning, USA) with 25 nL compound in dimethyl sulfoxide in each well. […] After 1 hour incubation at room temperature, the fluorescence intensity was measured with Envision[…] plate reader (PerkinElmer, USA). Upon excitation at 340 nm by UV, the energy from Eu3+ donor of the antibody is transferred to the FRET acceptor XL665, and […] emits light at 665 nm.

For assay [2], the target named is T2, human AXL (473-end) (Homo sapiens, UniProt P30530).
T2 construct: human AXL (473-end); purchased SignalChem, Canada
T2 sequence (P30530 473-894 limits assumed): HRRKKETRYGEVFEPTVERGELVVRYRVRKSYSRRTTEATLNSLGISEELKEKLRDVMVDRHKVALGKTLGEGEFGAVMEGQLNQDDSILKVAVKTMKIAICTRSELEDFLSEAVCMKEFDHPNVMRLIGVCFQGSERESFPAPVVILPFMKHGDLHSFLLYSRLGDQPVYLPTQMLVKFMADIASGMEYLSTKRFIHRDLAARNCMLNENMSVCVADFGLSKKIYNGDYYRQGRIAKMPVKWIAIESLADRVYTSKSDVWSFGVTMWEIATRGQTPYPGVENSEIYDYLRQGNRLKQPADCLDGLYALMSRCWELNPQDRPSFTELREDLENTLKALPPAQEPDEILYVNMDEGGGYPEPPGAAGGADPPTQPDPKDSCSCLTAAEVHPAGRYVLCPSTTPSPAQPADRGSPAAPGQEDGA
Put plainly: HTRF kinase activity biochemical assay, AXL. The following applies: 10 μM ATP, 30 minutes pre-incubation. Here is the method: as §1

The target in assay [3] is T3, human MER (528-end) (Homo sapiens, UniProt Q12866).
T3 construct: human MER (528-end); purchased Camnabio, Japan
T3 sequence (Q12866 528-999 limits assumed): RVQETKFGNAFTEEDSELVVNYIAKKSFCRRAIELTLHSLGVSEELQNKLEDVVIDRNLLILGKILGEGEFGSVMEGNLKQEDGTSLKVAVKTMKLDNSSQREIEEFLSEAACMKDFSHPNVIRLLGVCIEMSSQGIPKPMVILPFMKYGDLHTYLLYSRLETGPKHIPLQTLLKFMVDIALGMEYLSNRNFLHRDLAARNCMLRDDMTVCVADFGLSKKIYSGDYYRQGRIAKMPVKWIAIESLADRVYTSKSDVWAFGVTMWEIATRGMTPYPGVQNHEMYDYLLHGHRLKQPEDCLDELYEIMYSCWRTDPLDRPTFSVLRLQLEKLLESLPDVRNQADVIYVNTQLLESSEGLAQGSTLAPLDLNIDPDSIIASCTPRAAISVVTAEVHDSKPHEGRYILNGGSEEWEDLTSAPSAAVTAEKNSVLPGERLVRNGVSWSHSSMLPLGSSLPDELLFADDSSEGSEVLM
The assay is described as follows: HTRF kinase activity biochemical assay, MER. To be noted: 10 μM ATP, 30 minutes pre-incubation; read-out: HTRF MERTK IC50. The method, then:
as §1

Turning to `Cn1cc(-c2cnc(N)c(C(=O)N[C@H]3CCC[C@@H]3OCc3ccc(-c4ccc5c(c4)C[C@H](F)[C@@H]5N4CCN(CCO)CC4)cc3)c2)ccc1=O` (relative stereo) [Example 90, 6-amino-N-{(1S,2S)-2-[(4-{(1R*,2S*)-2-fluoro-1-[4-(2-hydroxyethyl)piperazin-1-yl]-2,3-dihydro-1H-inden-5-yl}phenyl)methoxy]cyclopentyl}-1′-methyl-6′-oxo-1′,6′-dihydro[3,3′-bipyridine]-5-carboxamide], the IC50 is over 1000 nM in assay [1], under 10 nM in assay [2] and under 10 nM in assay [3].
For the molecule `CN(C)CCC(=O)N1Cc2ccc(-c3ccc(CO[C@H]4CCC[C@@H]4NC(=O)c4cc(-c5cnn(C)c5)cnc4N)cc3)cc2C1` [Example 1, 2-amino-N-{(1S,2S)-2-[(4-{2-[3-(dimethylamino)propanoyl]-2,3-dihydro-1H-isoindol-5-yl}phenyl)methoxy]cyclopentyl}-5-(1-methyl-1H-pyrazol-4-yl)pyridine-3-carboxamide], the half-maximal inhibitory concentration (IC50) was over 1000 nM in assay [1], over 1000 nM in assay [2] and 100 to 1000 nM in assay [3].
Regarding `CN(C)CC(=O)N1CCc2cc(-c3ccc(CO[C@H]4CCC[C@@H]4NC(=O)c4cc(-c5cnn(C)c5)cnc4N)cc3)ccc21` [Example 2, 2-amino-N-{(1S,2S)-2-[(4-{1-[(dimethylamino)acetyl]-2,3-dihydro-1H-indol-5-yl}phenyl)methoxy]cyclopentyl}-5-(1-methyl-1H-pyrazol-4-yl)pyridine-3-carboxamide], the values for the IC50 in assay [1], in assay [2] and in assay [3] were over 1000 nM, 100 to 1000 nM and 100 to 1000 nM, respectively.
Regarding `CN1C(=O)Cc2cc(-c3ccc(CO[C@H]4CCC[C@@H]4NC(=O)c4cc(-c5cnn(C)c5)cnc4N)cc3)ccc21` [Example 3, 2-amino-N-[(1S,2S)-2-{[4-(1-methyl-2-oxo-2,3-dihydro-1H-indol-5-yl)phenyl]methoxy}cyclopentyl]-5-(1-methyl-1H-pyrazol-4-yl)pyridine-3-carboxamide], the concentration for half-maximal inhibition (IC50) is over 1000 nM in assay [1], 100 to 1000 nM in assay [2] and 10 to 100 nM in assay [3].
On to `Cn1cc(-c2cnc(N)c(C(=O)N[C@H]3CCC[C@@H]3OCc3ccc(-c4ccc5c(ccn5C5CCN(C(=O)OC(C)(C)C)CC5)c4)cc3)c2)cn1` [Example 4, tert-butyl 4-{5-[4-({[(1S,2S)-2-{[2-amino-5-(1-methyl-1H-pyrazol-4-yl)pyridine-3-carbonyl]amino}cyclopentyl]oxy}methyl)phenyl]-1H-indol-1-yl}piperidine-1-carboxylate], for which the results for the IC50 in assay [1], in assay [2] and in assay [3] were over 1000 nM, 100 to 1000 nM and over 1000 nM, respectively.
For `Cn1cc(-c2cnc(N)c(C(=O)N[C@H]3CCC[C@@H]3OCc3ccc(-c4ccc5c(ccn5C5CCNCC5)c4)cc3)c2)cn1` [Example 5, 2-amino-5-(1-methyl-1H-pyrazol-4-yl)-N-[(1S,2S)-2-({4-[1-(piperidin-4-yl)-1H-indol-5-yl]phenyl}methoxy)cyclopentyl]pyridine-3-carboxamide], the IC50 in assay [1] was 100 to 1000 nM; in assay [2], under 10 nM; in assay [3] it was under 10 nM.
Turning to `CN1CCC(n2ccc3cc(-c4ccc(CO[C@H]5CCC[C@@H]5NC(=O)c5cc(-c6cnn(C)c6)cnc5N)cc4)ccc32)CC1` [Example 6, 2-amino-N-[(1S,2S)-2-({4-[1-(1-methylpiperidin-4-yl)-1H-indol-5-yl]phenyl}methoxy)cyclopentyl]-5-(1-methyl-1H-pyrazol-4-yl)pyridine-3-carboxamide], the IC50 in assay [1] was 100 to 1000 nM; in assay [2], under 10 nM; in assay [3] it was under 10 nM.
Regarding `Cn1cc(-c2cnc(N)c(C(=O)N[C@H]3CCC[C@@H]3OCc3ccc(-c4ccc5c(ccn5C5CCN(CCO)CC5)c4)cc3)c2)cn1` [Example 7, 2-amino-N-{(1S,2S)-2-[(4-{1-[1-(2-hydroxyethyl)piperidin-4-yl]-1H-indol-5-yl}phenyl)methoxy]cyclopentyl}-5-(1-methyl-1H-pyrazol-4-yl)pyridine-3-carboxamide], the figures for the IC50 in assay [1], in assay [2] and in assay [3] were 100 to 1000 nM, under 10 nM and under 10 nM, respectively.
Consider `CN(C)CC(=O)NC1Cc2ccc(-c3ccc(CO[C@H]4CCC[C@@H]4NC(=O)c4cc(-c5cnn(C)c5)cnc4N)cc3)cc2C1` (stereo partly drawn) [Example 9, 2-amino-N-{(1S,2S)-2-[(4-{2-[2-(dimethylamino)acetamido]-2,3-dihydro-1H-inden-5-yl}phenyl)methoxy]cyclopentyl}-5-(1-methyl-1H-pyrazol-4-yl)pyridine-3-carboxamide], for which the IC50 was over 1000 nM in assay [1], 10 to 100 nM in assay [2] and under 10 nM in assay [3].
Take `CN1CCC(C(=O)NC2Cc3ccc(-c4ccc(CO[C@H]5CCC[C@@H]5NC(=O)c5cc(-c6cnn(C)c6)cnc5N)cc4)cc3C2)CC1` (stereo partly drawn) [Example 10, 2-amino-N-{(1S,2S)-2-[(4-{2-[(1-methylpiperidine-4-carbonyl)amino]-2,3-dihydro-1H-inden-5-yl}phenyl)methoxy]cyclopentyl}-5-(1-methyl-1H-pyrazol-4-yl)pyridine-3-carboxamide]: the figures for the IC50 in assay [1], in assay [2] and in assay [3] were over 1000 nM, 10 to 100 nM and under 10 nM, respectively.
For `CN1CC(C(=O)NC2Cc3ccc(-c4ccc(CO[C@H]5CCC[C@@H]5NC(=O)c5cc(-c6cnn(C)c6)cnc5N)cc4)cc3C2)C1` (stereo partly drawn) [Example 11, 2-amino-N-{(1S,2S)-2-[(4-{2-[(1-methylazetidine-3-carbonyl)amino]-2,3-dihydro-1H-inden-5-yl}phenyl)methoxy]cyclopentyl}-5-(1-methyl-1H-pyrazol-4-yl)pyridine-3-carboxamide] the same measures were over 1000 nM, 10 to 100 nM and under 10 nM.
Take `CN1CCC(N2CC(C)(C)c3cc(-c4ccc(CO[C@H]5CCC[C@@H]5NC(=O)c5cc(-c6cnn(C)c6)cnc5N)cc4)ccc32)CC1` [Example 12, 2-amino-N-[(1S,2S)-2-({4-[3,3-dimethyl-1-(1-methylpiperidin-4-yl)-2,3-dihydro-1H-indol-5-yl]phenyl}methoxy)cyclopentyl]-5-(1-methyl-1H-pyrazol-4-yl)pyridine-3-carboxamide]: the values for the IC50 in assay [1], in assay [2] and in assay [3] were 10 to 100 nM, under 10 nM and under 10 nM, respectively.
As to `Cn1cc(-c2cnc(N)c(C(=O)N[C@H]3CCC[C@@H]3OCc3ccc(-c4ccc5c(c4)C(C)(C)CN5C4CCN(CCO)CC4)cc3)c2)cn1` [Example 13, 2-amino-N-{(1S,2S)-2-[(4-{1-[1-(2-hydroxyethyl)piperidin-4-yl]-3,3-dimethyl-2,3-dihydro-1H-indol-5-yl}phenyl)methoxy]cyclopentyl}-5-(1-methyl-1H-pyrazol-4-yl)pyridine-3-carboxamide], the IC50 in assay [1] was 10 to 100 nM; in assay [2], under 10 nM; in assay [3], under 10 nM.
For the molecule `Cn1cc(-c2cnc(N)c(C(=O)N[C@H]3COC[C@@H]3OCc3ccc(-c4ccc5c(ccn5C5CCN(CCO)CC5)c4)cc3)c2)cn1` [Example 14, 2-amino-N-{(3S,4R)-4-[(4-{1-[1-(2-hydroxyethyl)piperidin-4-yl]-1H-indol-5-yl}phenyl)methoxy]oxolan-3-yl}-5-(1-methyl-1H-pyrazol-4-yl)pyridine-3-carboxamide], the figures for the IC50 in assay [1], in assay [2] and in assay [3] were over 1000 nM, 10 to 100 nM and under 10 nM, respectively.
